Measured values published in PubChem BioAssay (NCI).
Several values for one entry are separate records, joined by “and”; a condition that tells them apart may be missing. Equal values may be shown once.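 How tested: cells in 96-well plates exposed to compound for 48 hours at five concentrations. Abbreviation: GI50, concentration required for 50% inhibition of growth. TGI denotes the concentration required for complete inhibition of growth.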

Tests used:
Experiment in all cases: NCI anticancer screen, dose series, 48 h
[1] = test system: RXF 393 renal
[2] = test system: UACC-62 melanoma
[3] = test system: M14 melanoma
[4] = test system: ACHN renal
[5] = test system: LOX IMVI melanoma
[6] = test system: TK-10 renal
[7] = test system: DMS 273 small cell lung
[8] = test system: DLD-1 colon
[9] = test system: SNB-75 CNS
[10] = test system: DU-145 prostate

Structure (SMILES) | TGI [1] | TGI [2] | TGI [3] | TGI [4] | TGI [5] | TGI [6] | TGI [7] | TGI [8] | TGI [9] | TGI [10] | GI50 [2] | GI50 [3] | GI50 [4] | GI50 [5] | GI50 [6] | GI50 [7] | GI50 [8] | GI50 [9] | GI50 [1]
Cc1ccccc1C(=O)Oc1ccc(OCc2ccccc2)cc1 | > 100 µM | > 100 µM | > 100 µM | > 100 µM | > 100 µM | > 100 µM | > 100 µM | > 100 µM | > 100 µM | – | – | – | – | – | – | – | – | – | –
OCC(O)C(O)C(O)c1nn(-c2ccccc2)c2nc3cc(Cl)c(Cl)cc3nc12 (stereo unspecified) | 47.7 µM | > 100 µM | 41.1 µM | > 100 µM | > 100 µM | > 100 µM | > 100 µM | > 100 µM | 47.8 µM | – | – | – | – | – | – | – | – | – | –
O=C(CNc1ccc2c(=S)c3ccccc3[nH]c2c1)Nc1ccccc1-c1ccccc1NC(=O)CNc1ccc2c(=S)c3ccccc3[nH]c2c1 | 56.6 µM | 44.3 µM | 41.4 µM | 28.5 µM | 55.6 µM | 43.9 µM | > 76.3 µM | 23.9 µM | 71.9 µM | 37.4 µM | – | – | – | – | – | – | – | – | –
O=C1C(=O)N(c2nccs2)C(=O)C(=O)C1c1nc2ccccc2s1 | > 100 µM | > 100 µM | > 100 µM | > 100 µM | > 100 µM | > 100 µM | > 100 µM | > 100 µM | > 100 µM | – | – | – | – | – | – | – | – | – | –
O=C(Nc1ccc(Br)cc1)C(=O)C(C(=O)c1ccccc1F)C1OC(=O)c2ccccc21 (stereo unspecified) | – | 28.1 µM | 43.9 µM | > 100 µM | 44.9 µM | > 100 µM | > 100 µM | 80.1 µM | 51.6 µM | – | – | – | – | – | – | – | – | – | –
CC(NC(=O)C(=O)N/N=C1\C[C@@H](c2ccccc2)Nc2ccccc21)c1ccccc1 (stereo partly specified) | > 100 µM | – | > 100 µM | > 100 µM | > 100 µM | > 100 µM | > 100 µM | > 100 µM | > 100 µM | – | – | – | – | – | – | – | – | – | –
CCOC(=O)C1=C(Nc2ccc(Br)cc2)OC/C1=N\NC(=O)c1ccccc1O | 14.2 µM | 8.63 µM | > 100 µM | > 100 µM | 20.3 µM | > 100 µM | 17 µM | 97.3 µM | > 48.3 µM | – | – | – | – | – | – | – | – | – | –
CC(C)CC12CC3CCC(CNC1=O)C32C (stereo unspecified) | > 100 µM | > 100 µM | > 100 µM | > 100 µM | > 100 µM | > 100 µM | > 100 µM | > 100 µM | > 100 µM | – | – | – | – | – | – | – | – | – | –
O=C(N/C(=C\c1ccc(/C=C(\NC(=O)c2ccccc2)c2nc3ccccc3s2)cc1)c1nc2ccccc2s1)c1ccccc1 | 32.6 µM | 12 µM | 11.9 µM | 16.7 µM | 13.3 µM | 25.2 µM | 10.8 µM | 12 µM | 26.7 µM | – | – | – | – | – | – | – | – | – | –
CC(C)C(=O)[O-].CC(C)C(=O)[O-].N.N.N.N.[Co+3].[O-][Cl+3]([O-])([O-])[O-] | – | > 100 µM | > 100 µM | > 100 µM | > 100 µM | > 100 µM | > 100 µM | > 100 µM | > 100 µM | – | > 100 µM | > 100 µM | > 100 µM | > 100 µM | > 100 µM | > 100 µM | > 100 µM | > 100 µM | –
O=c1cccccc1[O-].O=c1cccccc1[O-].O=c1cccccc1[O-].[Ce+3] | 40.4 µM | 40.4 µM | > 100 µM | 96.3 µM | > 100 µM | 65.2 µM | > 100 µM | > 100 µM | – | – | – | – | – | – | – | 11.4 µM | 16.7 µM | – | –
COc1cc(/C=C\c2ccc(Br)cc2)cc(OC)c1OC | – | > 100 µM | – | > 100 µM | – | – | 13.8 µM | > 100 µM | – | – | – | – | – | – | – | – | – | – | –
O=C(Nc1nc2ccc([N+](=O)[O-])cc2s1)C(=O)C(C(=O)c1ccncc1)C1OC(=O)c2ccccc21 (stereo unspecified) | > 100 µM | > 100 µM | > 100 µM | > 100 µM | – | – | > 100 µM | > 100 µM | > 100 µM | – | – | – | – | – | – | – | – | – | –
CCn1c(=O)c2ccccc2n2c(=O)c3cc4ccccc4cc3nc12 | 37 µM | > 100 µM | > 100 µM | > 100 µM | > 100 µM | > 100 µM | > 100 µM | > 100 µM | 95.3 µM | – | – | – | – | – | – | – | – | – | –
CCN(CC)c1ccc(N=C2C=C(Cl)C(=O)c3ncccc32)c(C)c1 | 17.5 µM | 24.7 µM | 8.31 µM | 11.1 µM | 26.9 µM | 29.2 µM | 16.8 µM | 17 µM | 88.3 µM | – | – | – | – | – | – | – | – | – | –
CC(=O)[O-].[Zn].c1ccc(/C(=N\Nc2ccccn2)c2ccccn2)cc1 | – | 0.67 µM and 1.17 µM | 1.43 µM | 5.03 µM | 1.59 µM | 3.34 µM | 1.88 µM | 2.49 µM | 2.63 µM | – | 0.0476 µM | 0.0468 µM | 0.0241 µM | 0.32 µM | – | – | – | – | –
CC1[C@@H]2CC=C3[C@H]4CCC5Cc6nc7c(nc6C[C@@]5(C)C4(O)CC(=O)[C@]32CO[C@]12OC(C)(C)CC2O)CC1CC[C@@H]2C3=C[C@H]4O[C@@]5(O[C@@](C)(CO)C[C@@H]5O)C(C)[C@@]4(O)[C@]3(C)[C@@H](O)CC2[C@]1(C)C7 (stereo partly specified) | 0.000371 µM and 0.00217 µM | – | 0.000363 µM | 0.381 µM | – | 0.307 µM | – | 0.874 µM and > 3.6 µM | – | – | 0.000142 µM and 0.000422 µM | 0.000135 µM | 0.00257 µM | 0.00015 µM and 0.00114 µM | – | 0.00036 µM | 0.0712 µM and 0.0866 µM | 0.00036 µM | 0.00036 µM
CC(=O)OC1CCC2C(=CCC3C2(C)C(=O)CC2(C)C(C4(C)OC(C(C)C)=CC4=O)C(O)CC32C)C1(C)C (stereo unspecified) | – | 41.7 µM | 50.9 µM | > 100 µM | – | – | 58.3 µM | > 100 µM | > 100 µM | – | – | – | – | – | – | – | – | – | –
